Melting point data for one molecule are collected here from patent US20120309823A1, “PERCUTANEOUS ABSORPTION PREPARATIONS” (priority 1999, published 2012).

The structures appear in SMILES notation.

What is called melting point is the temperature of the solid-liquid transition. For the molecule `CC(=O)NCC[C@@H]1CCc2ccc3c(c21)CCO3`, the melting point lay in the range of 118 to 120 °C.
